# Species: Rattus norvegicus
# Assay: DrugMatrix - Regimen: Daily Repeat
# Format: toxicity, organism-based, Sprague-Dawley
# Set-up: regimen Daily Repeat, gender Male, age 6-8 weeks
# Details: in vivo, po, route oral GAVAGE, vehicle .5 % CMC; for BASOPHIL / EOSINOPHIL / ERYTHROCYTE COUNT / HEMATOCRIT / HEMOGLOBIN / LEUKOCYTE COUNT / LYMPHOCYTE / MEAN CORPUSCULAR HEMOGLOBIN / MEAN CORPUSCULAR HEMOGLOBIN CONCENTRATION / MEAN CORPUSCULAR VOLUME / MONOCYTE / NEUTROPHIL / PLATELET COUNT: tissue Blood; for ALANINE AMINOTRANSFERASE / ALBUMIN / ALKALINE PHOSPHATASE / ASPARTATE AMINOTRANSFERASE / BLOOD UREA NITROGEN / CHLORIDE / CHOLESTEROL / CREATINE PHOSPHOKINASE / CREATININE / GLUCOSE / PHOSPHORUS / SODIUM / TOTAL PROTEIN: tissue Plasma
# [1] = 0 mg/kg, 72 h, dose level Control, time 3 day
# [2] = 0 mg/kg, 120 h, dose level Control, time 5 day
# [3] = 10 mg/kg, 72 h, dose level Low, time 3 day
structure (smiles),measurement,setting,value
CCn1cc(C(=O)O)c(=O)c2cc(F)c(N3CCNC(C)C3)c(F)c21 (stereo not drawn) [LOMEFLOXACIN],BASOPHIL,[1],0%
same,EOSINOPHIL,[1],0.4%
same,ERYTHROCYTE COUNT,[1],6.43 x10E6/uL
same,HEMATOCRIT,[1],37.36%
same,HEMOGLOBIN,[1],13.98 G/DL
same,LEUKOCYTE COUNT,[1],13 x10E3/uL
same,LYMPHOCYTE,[1],81.4%
same,MEAN CORPUSCULAR HEMOGLOBIN,[1],21.9 pg
same,MEAN CORPUSCULAR HEMOGLOBIN CONCENTRATION,[1],37.4 G/DL
same,MEAN CORPUSCULAR VOLUME,[1],58.52 fL
same,MONOCYTE,[1],0.4%
same,NEUTROPHIL,[1],18%
same,PLATELET COUNT,[1],1386 x10E3/uL
same,ALANINE AMINOTRANSFERASE,[1],39.33 u/L
same,ALBUMIN,[1],3.57 G/DL
same,ALKALINE PHOSPHATASE,[1],283.83 u/L
same,ASPARTATE AMINOTRANSFERASE,[1],69.5 u/L
same,BLOOD UREA NITROGEN,[1],14.83 mg/dL
same,CHLORIDE,[1],107.33 MEQ/L
same,CHOLESTEROL,[1],75.17 mg/dL
same,CREATINE PHOSPHOKINASE,[1],107.67 u/L
same,CREATININE,[1],0.48 mg/dL
same,GLUCOSE,[1],172.5 mg/dL
same,PHOSPHORUS,[1],10.48 mg/dL
same,SODIUM,[1],152.33 MEQ/L
same,TOTAL PROTEIN,[1],5.9 G/DL
same,BASOPHIL,[2],0%
same,EOSINOPHIL,[2],0.4%
same,ERYTHROCYTE COUNT,[2],6.96 x10E6/uL
same,HEMATOCRIT,[2],41.12%
same,HEMOGLOBIN,[2],15.24 G/DL
same,LEUKOCYTE COUNT,[2],11.06 x10E3/uL
same,LYMPHOCYTE,[2],88.6%
same,MEAN CORPUSCULAR HEMOGLOBIN,[2],21.96 pg
same,MEAN CORPUSCULAR HEMOGLOBIN CONCENTRATION,[2],37.1 G/DL
same,MEAN CORPUSCULAR VOLUME,[2],59.12 fL
same,MONOCYTE,[2],0.2%
same,NEUTROPHIL,[2],10.8%
same,PLATELET COUNT,[2],1155.8 x10E3/uL
same,ALANINE AMINOTRANSFERASE,[2],36.33 u/L
same,ALBUMIN,[2],3.72 G/DL
same,ALKALINE PHOSPHATASE,[2],340.33 u/L
same,ASPARTATE AMINOTRANSFERASE,[2],68.33 u/L
same,BLOOD UREA NITROGEN,[2],15 mg/dL
same,CHLORIDE,[2],108.17 MEQ/L
same,CHOLESTEROL,[2],74.67 mg/dL
same,CREATINE PHOSPHOKINASE,[2],110.67 u/L
same,CREATININE,[2],0.47 mg/dL
same,GLUCOSE,[2],171.33 mg/dL
same,PHOSPHORUS,[2],10.05 mg/dL
same,SODIUM,[2],155.5 MEQ/L
same,TOTAL PROTEIN,[2],6.33 G/DL
same,BASOPHIL,[3],0%
same,EOSINOPHIL,[3],0.33%
same,ERYTHROCYTE COUNT,[3],6.14 x10E6/uL
same,HEMATOCRIT,[3],37.73%
same,HEMOGLOBIN,[3],14.37 G/DL
same,LEUKOCYTE COUNT,[3],14.47 x10E3/uL
same,LYMPHOCYTE,[3],89.33%
same,MEAN CORPUSCULAR HEMOGLOBIN,[3],23.47 pg
same,MEAN CORPUSCULAR HEMOGLOBIN CONCENTRATION,[3],38.1 G/DL
same,MEAN CORPUSCULAR VOLUME,[3],61.53 fL
same,MONOCYTE,[3],0%
same,NEUTROPHIL,[3],10.33%
same,PLATELET COUNT,[3],1193.33 x10E3/uL
same,ALANINE AMINOTRANSFERASE,[3],39 u/L
same,ALBUMIN,[3],3.37 G/DL
same,ALKALINE PHOSPHATASE,[3],307 u/L
same,ASPARTATE AMINOTRANSFERASE,[3],60.67 u/L
same,BLOOD UREA NITROGEN,[3],11.33 mg/dL
same,CHLORIDE,[3],106.67 MEQ/L
same,CHOLESTEROL,[3],65.33 mg/dL
same,CREATINE PHOSPHOKINASE,[3],106 u/L
same,CREATININE,[3],0.53 mg/dL
same,GLUCOSE,[3],175.33 mg/dL
same,PHOSPHORUS,[3],12.17 mg/dL
same,SODIUM,[3],151.67 MEQ/L
same,TOTAL PROTEIN,[3],5.53 G/DL

# — ChEMBL document CHEMBL3885881, “DrugMatrix”
